Measured values reported in patent US4906794A, “Lysosome liberation inhibitors and histamine release inhibitors” (Mitsubishi Kasei Corporation, priority 1986, dated 1990).

Experiments:
mast cells [1] = test: release of histamine from mast cells stimulated with protein extracted from the cuticle of ascarids (IgE antigen); type: cell-based, rat; conditions: preincubated before addition of protein extracted from the cuticle of ascarids
mast cells [2] = test: release of histamine from mast cells stimulated with compound 48/80; type: cell-based, male Wistar rat; conditions: for Histamine Release: control (0.1% DMSO) 62.42
Method: Such histamine release can also be caused by addition of a synthetic stimulant compound 48/80, ATP (adenosine triphosphate), to mast cells.
Thus, mast cells were collected from the peritoneal cavity of a male Wistar rat of 400 to 450 g in body weight according to conventional procedures. The mast cells (5×10^4) were incubated in Krebs-Ringer buffer (pH 7.4) containing an amount of sarcophytol-A for 10 minutes. The compound 48/80 (100 ng) was added as a stimulant. After incubation for further 10 minutes, cells were removed by centrifugation. Histamine in the supernatant was quantitatively measured according to Shore et al. method: J. Phar. Exp. Ther., 127, 182-186 (1959). Total histamine contained in the mast cells was also measured. Inhibition rates (%) are calculated according to the following equation: […]
wherein T and C represent the amount of histamine released from mast cells after the treatment with the drug, and the total amount contained in the mast cells, respectively.

[3] = test system: polymorphonuclear leukocytes; test: liberation of lysosomal enzymes (β-glucuronidase) from FMLP-stimulated polymorphonuclear leukocytes; type: cell-based, male Wistar rat; conditions: for Liberation (%) of lysosomal enzymes: control (0.1% DMSO) 32.0
Method: When 20 ml of 1% casein is intraperitoneally injected to a rat, a large number of polymorphonuclear leukocytes appear in the peritoneal cavity in 5 hours after the injection. Using these polymorphonuclear leukocytes, it is possible to measure the activity of polymorphonuclear leukocytes in an in vitro system. Thus, polymorphonuclear leukocytes are added into a test tube together with a buffer, and cytochalasin B is then added. Five minutes later, a stimulant formyl-methionyl-leucyl-phenylalanine (FMLP) is added. Then, the polymorphonuclear leukocytes liberate lysosomal enzymes. Simultaneously, some active enzymes and leukotrienes are produced. See Wei Hsueh et al., Nature, 290(23), 710-713 (11981).
Thus, polymorphonuclear leukocytes (2×10^6) were collected from the peritoneal cavity of a male Wistar rat of 250 to 350 g in body weight which had been stimulated with casein, and incubated in Hepes buffer (pH 7.4) for 5 minutes. After 5 μg of cytochalasin B was added, the mixture was incubated for an additional one minute. To the mixture, there was added an amount of a drug to be tested and, after incubation for 5 minutes, FMLP (0.1 μM) as a stimulant was added. Five minutes later, 2 volumes of ice-cooled phosphate buffer was added to arrest the reaction. The cells were removed by centrifugation at 1,100 rpm for 5 minutes. The supernatant was assayed for β-glucuronidase activity as an index of lysosomal enzymes. Separately, the total β-glucuronidase activity contained in the polymorphonuclear leukocyte was measured. Thus, liberation rates of lysosomal enzymes were determined as percentages of […]. Inhibition rates were calculated in percentage according to the following equation:
% Inhibition=(1-T/C) ×100
wherein T and C represent the liberation rates (%) of lysosomes for the treated and control groups, respectively.

[4] = test system: carrageenin-induced rat paw edema; test: rat carrageenin edema test (carrageenin-induced rat paw edema); type: in vivo, Wistar male rat; conditions: 6 rats; for % Inhibition (edema), 2 Hours: 2 hours after carrageenin; for % Inhibition (edema), 3 Hours: 3 hours after carrageenin
Method: When […] of 1% (W/V) λ-carrageenin is subcutaneously injected into the left paw of a Wistar male rat of 120 to 150 g, edema is developed in the left paw with a severity peak at 3 to 4 hours after injection--rat carrageenin edema test. It has been known that this carrageenin-induced rat paw edema is an excellent experimental model for inflammation, where histamine is involved in the development of edema immediately after injection of carrageenin, and subsequently such chemical mediators as prostaglandins, leukotrienes, bradykinin and the like are also involved.
The effect of sarcophytol-A on edema was investigated employing this experimental model: sarcophytol-A was orally administered to rats one hour before injection of carrageenin and the volume of the thus induced edema in the rat paw was measured by a volumometer 2 or 3 hours after the injection of carrageenin.
Degrees of edematization are expressed in percentages of paw volume increases after induction with respect to the paw volumes before induction: namely,
% Edematization=(B-A)/A×100
wherein A is the paw volume before induction, and B after induction. Further, inhibiting rates (%) are calculated according to the following equation: […]

mast cells [5] = conditions: inhibitor of histamine release; cited from earlier work
[6] = 33 mg/kg oral, 1 h before carrageenin

C/C1=C\C=C(\C(C)C)[C@@H](O)C/C(C)=C/CC/C(C)=C/CC1 [Sarcophytol-A]
release of histamine (in words) (mast cells [1]): positively inhibited | Histamine Release (mast cells [2]; 4 μM, compound 48/80 100 ng): 65.32 Fluorescence Intensity | Histamine Release (mast cells [2]; 11 μM, compound 48/80 100 ng): 59.72 Fluorescence Intensity | Histamine Release (mast cells [2]; 33 μM, compound 48/80 100 ng): 55.72 Fluorescence Intensity | Histamine Release (mast cells [2]; 100 μM, compound 48/80 100 ng): 41.45 Fluorescence Intensity | inhibition at 4 µM (mast cells [2]; Rattus norvegicus, Mast cell, 4 μM, compound 48/80 100 ng): -4.6% | inhibition at 11 µM (mast cells [2]; Rattus norvegicus, Mast cell, 11 μM, compound 48/80 100 ng): 4.3% | inhibition at 33 µM (mast cells [2]; Rattus norvegicus, Mast cell, 33 μM, compound 48/80 100 ng): 10.7% | inhibition at 100 µM (mast cells [2]; Rattus norvegicus, Mast cell, 100 μM, compound 48/80 100 ng): 33.6% | release of histamine (in words) (mast cells [2]; preincubated before addition of stimulant compound 48/80): positively inhibited | Liberation (%) of lysosomal enzymes ([3]; 4 μM, FMLP 0.1 μM): 29.4% | Liberation (%) of lysosomal enzymes ([3]; 11 μM, FMLP 0.1 μM): 27.2% | Liberation (%) of lysosomal enzymes ([3]; 33 μM, FMLP 0.1 μM): 26.0% | Liberation (%) of lysosomal enzymes ([3]; 100 μM, FMLP 0.1 μM): 13.1% | inhibition at 4 µM ([3]; Rattus norvegicus, Leukocyte, 4 μM, FMLP 0.1 μM, read-out: Inhibition (%) of lysosome liberation): 8.1% | inhibition at 11 µM ([3]; Rattus norvegicus, Leukocyte, 11 μM, FMLP 0.1 μM, read-out: Inhibition (%) of lysosome liberation): 15.1% | inhibition at 33 µM ([3]; Rattus norvegicus, Leukocyte, 33 μM, FMLP 0.1 μM, read-out: Inhibition (%) of lysosome liberation): 18.8% | inhibition at 100 µM ([3]; Rattus norvegicus, Leukocyte, 100 μM, FMLP 0.1 μM, read-out: Inhibition (%) of lysosome liberation): 59% | liberation of lysosomal enzymes (in words) ([3]; preincubated before addition of the stimulant FMLP): positively inhibited | % Inhibition (edema), 2 Hours [4, 6]: -3.0 ± 6.5% | % Inhibition (edema), 3 Hours [4, 6]: 2.4 ± 8.6% | % Inhibition (edema), 2 Hours ([4]; 100 mg/kg oral, 1 h before carrageenin): 24.4 ± 7.8% | % Inhibition (edema), 3 Hours ([4]; 100 mg/kg oral, 1 h before carrageenin, **p<0.01 vs control): 26.9 ± 6.9%

COc1ccc2c(c1)c(CC(=O)O)c(C)n2C(=O)c1ccc(Cl)cc1 [Indomethacin, reference compound]
% Inhibition (edema), 2 Hours ([4]; 10 mg/kg oral, **p<0.01 vs control): 43.5 ± 3.5% | % Inhibition (edema), 3 Hours ([4]; 10 mg/kg oral, ***p<0.001 vs control): 43.7 ± 3.0%

O=C(O)c1cc(=O)c2c(OCC(O)COc3cccc4oc(C(=O)O)cc(=O)c34)cccc2o1 [cromoglycate]
degranulation of mast cells (in words) (mast cells [5]): inhibits degranulation of mast cells
